# In patent publication US8975280B2, “Deoxynojirimycin and D-arabinitol analogs and methods of using” (The Chancellor, Masters and Scholars of The University of …, priority 2006, dated 2015):
# Molecular target: T1, glucosidase II (Homo sapiens, UniProt Q14697)
# T1 construct: endogenous in cells; host or cells: HL60 cells
# T1 sequence (Q14697 29-944): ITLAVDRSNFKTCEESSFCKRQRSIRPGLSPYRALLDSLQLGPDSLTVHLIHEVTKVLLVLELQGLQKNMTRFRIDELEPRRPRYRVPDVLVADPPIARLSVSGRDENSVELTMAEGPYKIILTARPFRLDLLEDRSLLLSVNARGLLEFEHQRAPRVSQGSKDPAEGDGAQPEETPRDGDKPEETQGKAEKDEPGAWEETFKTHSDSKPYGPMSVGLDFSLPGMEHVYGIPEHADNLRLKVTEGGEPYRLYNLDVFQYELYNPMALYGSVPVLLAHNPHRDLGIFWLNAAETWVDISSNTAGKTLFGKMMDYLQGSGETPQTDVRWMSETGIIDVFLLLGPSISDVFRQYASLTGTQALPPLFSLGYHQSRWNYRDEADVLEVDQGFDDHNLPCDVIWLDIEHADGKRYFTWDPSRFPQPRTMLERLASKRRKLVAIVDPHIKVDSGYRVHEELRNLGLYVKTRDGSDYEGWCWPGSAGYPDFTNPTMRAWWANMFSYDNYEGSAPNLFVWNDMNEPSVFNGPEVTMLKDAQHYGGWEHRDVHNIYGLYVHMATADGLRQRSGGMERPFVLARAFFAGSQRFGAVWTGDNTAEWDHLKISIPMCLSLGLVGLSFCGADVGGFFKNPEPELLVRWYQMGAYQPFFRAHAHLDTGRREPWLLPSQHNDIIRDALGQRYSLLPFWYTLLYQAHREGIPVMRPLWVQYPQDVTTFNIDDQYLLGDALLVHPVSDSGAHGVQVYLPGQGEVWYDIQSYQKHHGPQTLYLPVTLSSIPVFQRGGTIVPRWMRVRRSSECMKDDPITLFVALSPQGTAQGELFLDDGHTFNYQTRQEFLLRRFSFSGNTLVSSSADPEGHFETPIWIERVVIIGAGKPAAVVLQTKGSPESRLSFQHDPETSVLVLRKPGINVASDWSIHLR
# T1 sequence (P14314 15-528 partner): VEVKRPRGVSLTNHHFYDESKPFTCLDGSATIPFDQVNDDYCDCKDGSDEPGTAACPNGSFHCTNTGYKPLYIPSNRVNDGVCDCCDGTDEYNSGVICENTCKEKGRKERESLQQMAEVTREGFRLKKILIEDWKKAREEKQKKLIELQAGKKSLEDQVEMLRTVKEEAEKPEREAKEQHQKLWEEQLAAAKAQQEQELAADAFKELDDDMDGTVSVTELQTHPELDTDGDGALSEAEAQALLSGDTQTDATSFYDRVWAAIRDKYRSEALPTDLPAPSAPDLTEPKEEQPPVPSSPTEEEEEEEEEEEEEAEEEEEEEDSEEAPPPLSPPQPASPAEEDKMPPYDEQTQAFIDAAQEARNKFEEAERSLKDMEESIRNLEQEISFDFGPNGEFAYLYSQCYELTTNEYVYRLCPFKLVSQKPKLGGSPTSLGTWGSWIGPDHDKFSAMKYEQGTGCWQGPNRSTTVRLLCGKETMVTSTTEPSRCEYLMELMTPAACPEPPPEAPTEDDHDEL
# Experiment: Inhibition of glucosidase II in HL60 cells, free oligosaccharide (G1M5N) analysis by NP-HPLC
# Assay type: cell-based
# Conditions: 24 h
# Method: The effect of an ER-glucosidase inhibitor on cells was evaluated using an assay method by modifying known methods. (H. R. Mellor et al., Cellular Effects of Deoxynojirimycin Analogues: Inhibition of N-Linked Oligosaccharide Processing and Generation of Free Glucosylated Oligosaccharides, 381 Biochem. J. 867-875 (2004). The detection of free oligosaccharides following imino sugar treatment to generate misfolded protein that is degraded in the cytosol is an accurate measure of cell ER entry and inhibition of glycoprotein processing of α-glucosidases I and II by imino sugars.
# Cells were cultured to high density (×10^7 cells/ml) prior to growth in fresh medium containing NB-DNJ at varying concentrations. The cells were seeded at a lower density so as to achieve a high density at the end of the incubation period. […] The conditions for extraction of FOS were determined to maximize recovery of FOS. […]
# ConA-Sepharose purified 2-AA-labeled oligosaccharides were separated by NP-HPLC using a 4.6×250 mm TSKgel Amide-80 column (Anachem, Luton, UK) with slight modifications to known methods. (D. C. Neville, et al.) The chromatography system consisted of a Waters Alliance 2695 separations module and an in-line Waters 474 fluorescence detector set at an excitation wavelength of 360 nm and emission wavelength of 425 nm. […]
structure (smiles),measurement,value
"[N-]=[N+]=Nc1ccc(NCCCCCCN2C[C@H](O)[C@@H](O)[C@H](O)[C@H]2CO)c([N+](=O)[O-])c1 [NAP-DNJ, N—(N′-{4′azido-2′-nitrophenyl)-6-aminohexyl)-deoxynojirimycin]",concentration at which glucosidase II is inhibited in cells,1 to 10 µM
